According to the NIST ThermoML archive (doi:10.1016/j.jct.2010.08.010):
± gives the expanded uncertainty stated by the source.

Settings: Liquid, Buoyancy - hydrostatic balance with magnetic suspension - one sinker

A mass density (293.15 K, 99.46 kPa) of 778.632 ± 0.18 kg/m3, a mass density (293.15 K, 1102 kPa) of 779.471 ± 0.18 kg/m3 and a mass density (293.15 K, 2002.4 kPa) of 780.22 ± 0.18 kg/m3 were found for `C1CCCCC1` [cyclohexane] in this work. The mass density (293.15 K, 4003.9 kPa) was 781.856 ± 0.18 kg/m3, the mass density (293.15 K, 6003.8 kPa) was 783.454 ± 0.18 kg/m3 and the mass density (293.15 K, 8003.3 kPa) was 785.025 ± 0.18 kg/m3. The mass density (293.15 K, 10042 kPa) was 786.595 ± 0.18 kg/m3, the mass density (293.15 K, 12046 kPa) was 788.105 ± 0.18 kg/m3 and the mass density (293.15 K, 13919 kPa) was 789.495 ± 0.18 kg/m3. It also gave a mass density (293.15 K, 15982 kPa) of 790.995 ± 0.18 kg/m3, a mass density (293.15 K, 17946 kPa) of 792.401 ± 0.18 kg/m3 and a mass density (293.15 K, 20017 kPa) of 793.855 ± 0.18 kg/m3. It also gave a mass density (313.15 K, 102.48 kPa) of 759.667 ± 0.18 kg/m3, a mass density (313.15 K, 1139 kPa) of 760.675 ± 0.18 kg/m3 and a mass density (313.15 K, 2012.2 kPa) of 761.509 ± 0.18 kg/m3. The mass density (313.15 K, 4102.4 kPa) was 763.47 ± 0.18 kg/m3, the mass density (313.15 K, 5932.8 kPa) was 765.157 ± 0.18 kg/m3 and the mass density (313.15 K, 7910.5 kPa) was 766.936 ± 0.18 kg/m3. The mass density (313.15 K, 10018 kPa) was 768.784 ± 0.18 kg/m3, the mass density (313.15 K, 12069 kPa) was 770.545 ± 0.18 kg/m3 and the mass density (313.15 K, 13965 kPa) was 772.137 ± 0.18 kg/m3. For the same compound, the mass density (313.15 K, 15902 kPa) was 773.737 ± 0.18 kg/m3, the mass density (313.15 K, 17956 kPa) was 775.394 ± 0.18 kg/m3 and the mass density (313.15 K, 20142 kPa) was 777.123 ± 0.18 kg/m3. For the same compound, the mass density (333.15 K, 1112.4 kPa) was 741.367 ± 0.17 kg/m3, the mass density (333.15 K, 2043.6 kPa) was 742.401 ± 0.17 kg/m3 and the mass density (333.15 K, 3988 kPa) was 744.517 ± 0.17 kg/m3. The mass density (333.15 K, 5966.8 kPa) was 746.613 ± 0.17 kg/m3, the mass density (333.15 K, 8141.8 kPa) was 748.853 ± 0.17 kg/m3 and the mass density (333.15 K, 10007 kPa) was 750.72 ± 0.17 kg/m3. It also gave a mass density (333.15 K, 11994 kPa) of 752.664 ± 0.18 kg/m3, a mass density (333.15 K, 14093 kPa) of 754.666 ± 0.18 kg/m3 and a mass density (333.15 K, 15963 kPa) of 756.414 ± 0.18 kg/m3. For the same compound, the mass density (333.15 K, 17995 kPa) was 758.261 ± 0.18 kg/m3, the mass density (333.15 K, 19861 kPa) was 759.929 ± 0.18 kg/m3 and the mass density (353.15 K, 1109.9 kPa) was 721.547 ± 0.17 kg/m3. The mass density (353.15 K, 1973.2 kPa) was 722.669 ± 0.17 kg/m3, the mass density (353.15 K, 4000 kPa) was 725.242 ± 0.17 kg/m3 and the mass density (353.15 K, 6001.3 kPa) was 727.698 ± 0.17 kg/m3. For the same compound, the mass density (353.15 K, 8046.5 kPa) was 730.125 ± 0.17 kg/m3, the mass density (353.15 K, 10046 kPa) was 732.423 ± 0.17 kg/m3 and the mass density (353.15 K, 11820 kPa) was 734.413 ± 0.17 kg/m3. The mass density (353.15 K, 13860 kPa) was 736.633 ± 0.17 kg/m3, the mass density (353.15 K, 15940 kPa) was 738.835 ± 0.17 kg/m3 and the mass density (353.15 K, 18023 kPa) was 740.978 ± 0.17 kg/m3. The mass density (353.15 K, 20003 kPa) was 742.965 ± 0.17 kg/m3, the mass density (373.15 K, 1115.5 kPa) was 701.065 ± 0.16 kg/m3 and the mass density (373.15 K, 1950.1 kPa) was 702.346 ± 0.16 kg/m3. It also gave a mass density (373.15 K, 4154.1 kPa) of 705.638 ± 0.17 kg/m3, a mass density (373.15 K, 6126 kPa) of 708.455 ± 0.17 kg/m3 and a mass density (373.15 K, 8029.4 kPa) of 711.079 ± 0.17 kg/m3. It also gave a mass density (373.15 K, 9951.2 kPa) of 713.63 ± 0.17 kg/m3, a mass density (373.15 K, 12097 kPa) of 716.383 ± 0.17 kg/m3 and a mass density (373.15 K, 13877 kPa) of 718.592 ± 0.17 kg/m3. It also gave a mass density (373.15 K, 16148 kPa) of 721.319 ± 0.17 kg/m3, a mass density (373.15 K, 18078 kPa) of 723.568 ± 0.17 kg/m3 and a mass density (373.15 K, 19877 kPa) of 725.607 ± 0.17 kg/m3. The mass density (393.15 K, 1162.9 kPa) was 679.792 ± 0.16 kg/m3, the mass density (393.15 K, 1960.3 kPa) was 681.265 ± 0.16 kg/m3 and the mass density (393.15 K, 3901.4 kPa) was 684.723 ± 0.16 kg/m3. For the same compound, the mass density (393.15 K, 5983.9 kPa) was 688.253 ± 0.16 kg/m3, the mass density (393.15 K, 7986.4 kPa) was 691.487 ± 0.16 kg/m3 and the mass density (393.15 K, 9903.3 kPa) was 694.452 ± 0.16 kg/m3. For the same compound, the mass density (393.15 K, 11975 kPa) was 697.527 ± 0.16 kg/m3, the mass density (393.15 K, 13821 kPa) was 700.163 ± 0.16 kg/m3 and the mass density (393.15 K, 16029 kPa) was 703.195 ± 0.16 kg/m3. For the same compound, the mass density (393.15 K, 18027 kPa) was 705.845 ± 0.17 kg/m3, the mass density (393.15 K, 20004 kPa) was 708.371 ± 0.17 kg/m3 and the mass density (413.15 K, 1196.7 kPa) was 657.32 ± 0.15 kg/m3. It also gave a mass density (413.15 K, 2172.6 kPa) of 659.527 ± 0.15 kg/m3, a mass density (413.15 K, 4146.4 kPa) of 663.767 ± 0.16 kg/m3 and a mass density (413.15 K, 6122.3 kPa) of 667.756 ± 0.16 kg/m3. For the same compound, the mass density (413.15 K, 8132.6 kPa) was 671.583 ± 0.16 kg/m3, the mass density (413.15 K, 10013 kPa) was 674.989 ± 0.16 kg/m3 and the mass density (413.15 K, 11993 kPa) was 678.397 ± 0.16 kg/m3. It also gave a mass density (413.15 K, 14004 kPa) of 681.703 ± 0.16 kg/m3, a mass density (413.15 K, 16053 kPa) of 684.936 ± 0.16 kg/m3 and a mass density (413.15 K, 18098 kPa) of 688.022 ± 0.16 kg/m3. It also gave a mass density (413.15 K, 19935 kPa) of 690.694 ± 0.16 kg/m3, a mass density (433.15 K, 1086.7 kPa) of 632.817 ± 0.15 kg/m3 and a mass density (433.15 K, 2070.6 kPa) of 635.63 ± 0.15 kg/m3. The mass density (433.15 K, 4050.3 kPa) was 640.931 ± 0.15 kg/m3, the mass density (433.15 K, 6077 kPa) was 645.937 ± 0.15 kg/m3 and the mass density (433.15 K, 8181.7 kPa) was 650.742 ± 0.15 kg/m3. It also gave a mass density (433.15 K, 10077 kPa) of 654.811 ± 0.15 kg/m3, a mass density (433.15 K, 12111 kPa) of 658.913 ± 0.15 kg/m3 and a mass density (433.15 K, 13890 kPa) of 662.325 ± 0.15 kg/m3. It also gave a mass density (433.15 K, 15959 kPa) of 666.096 ± 0.16 kg/m3, a mass density (433.15 K, 18073 kPa) of 669.76 ± 0.16 kg/m3 and a mass density (433.15 K, 20010 kPa) of 672.969 ± 0.16 kg/m3. For the same compound, the mass density (453.15 K, 2100.8 kPa) was 609.942 ± 0.14 kg/m3, the mass density (453.15 K, 4117.3 kPa) was 616.844 ± 0.15 kg/m3 and the mass density (453.15 K, 6121.3 kPa) was 623.004 ± 0.15 kg/m3. The mass density (453.15 K, 8117.4 kPa) was 628.596 ± 0.15 kg/m3, the mass density (453.15 K, 9915.4 kPa) was 633.254 ± 0.15 kg/m3 and the mass density (453.15 K, 11931 kPa) was 638.115 ± 0.15 kg/m3. It also gave a mass density (453.15 K, 13935 kPa) of 642.628 ± 0.15 kg/m3, a mass density (453.15 K, 15959 kPa) of 646.918 ± 0.15 kg/m3 and a mass density (453.15 K, 18103 kPa) of 651.206 ± 0.15 kg/m3. For the same compound, the mass density (453.15 K, 19890 kPa) was 654.601 ± 0.15 kg/m3, the mass density (473.15 K, 2403.5 kPa) was 582.448 ± 0.14 kg/m3 and the mass density (473.15 K, 3924.9 kPa) was 589.431 ± 0.14 kg/m3. For the same compound, the mass density (473.15 K, 6045.2 kPa) was 597.933 ± 0.14 kg/m3, the mass density (473.15 K, 8093.2 kPa) was 605.148 ± 0.14 kg/m3 and the mass density (473.15 K, 9884.3 kPa) was 610.832 ± 0.14 kg/m3. It also gave a mass density (473.15 K, 11911 kPa) of 616.733 ± 0.15 kg/m3, a mass density (473.15 K, 13943 kPa) of 622.171 ± 0.15 kg/m3 and a mass density (473.15 K, 16018 kPa) of 627.319 ± 0.15 kg/m3. For the same compound, the mass density (473.15 K, 18133 kPa) was 632.216 ± 0.15 kg/m3 and the mass density (473.15 K, 20025 kPa) was 636.335 ± 0.15 kg/m3.
